ChEMBL document CHEMBL3228010, “Potential antitumor agents. 29. Quantitative structure-activity relationships for the antileukemic bisquaternary ammonium heterocycles” (J Med Chem, 1979)

What was measured:
[1] = species on record: Bos taurus; experiment: Displacement of ethidium from calf thymus DNA by fluorimetric method
[2] = Displacement of ethidium from poly[d(A-T)]-poly[d(A-T)] DNA by fluorimetric method
[3] = system: L1210; experiment: Antitumor activity against mouse L1210 cells […] in ip dosed C3H X DBA2 F1 hybrid mouse on day 0 and dosed at LD10 level once daily on days 1 to 5 assessed as increase in life span relative to control; assay type: functional
[4] = Displacement of ethidium from poly[d(G-C)]-poly[d(G-C)] DNA (unknown origin) by fluorimetric method
[5] = system: Mus musculus; experiment: Toxicity in ip dosed C3H X DBA2 F1 hybrid mouse […] with mouse L1210 cells on day 0 and dosed once daily on days 1 to 5 measured after 50 days; assay type: organism-based; conditions: in vivo, 1200 h
[6] = Lipophilic-hydrophilic balance, Rm of the compound by partition chromatography; assay type: physicochemical
[7] = system: L1210; experiment: Antitumor activity against mouse L1210 cells […] in ip dosed C3H X DBA2 F1 hybrid mouse on day 0 and dosed once daily on days 1 to 5 assessed as increase in life span relative to control; assay type: functional

With `CC[n+]1cc(-c2ccc(NC(=O)c3ccc(C(=O)Nc4ccc(-c5c[n+](CC)c(N)nc5N)cc4)cc3)cc2)c(N)nc1N.Cc1ccc(S(=O)(=O)[O-])cc1.Cc1ccc(S(=O)(=O)[O-])cc1` as the molecule, how does the C50 [1] read?
Its C50 is 0.84 µM.

And the C50 [2]?
The C50 was 0.45 µM.

What about the “log(ILSmax)” value [3] of the same molecule?
Its value is 2.17.

What about the C50 [4] of the same molecule?
Its C50 is 2.1 µM.

And the LD10 [5]?
The LD10 was 15 mg/kg.

What about the Rm [6] of the same molecule?
Its Rm is -0.19.

And the D40 [7]?
Its D40 is 3.5 mg/kg.

What does the source list for `C[n+]1cccc(NC(=O)c2ccc(NC(=O)c3ccc(C(=O)Nc4ccc(C(=O)Nc5ccc[n+](C)c5)cc4)c4ccccc34)cc2)c1.Cc1ccc(S(=O)(=O)[O-])cc1.Cc1ccc(S(=O)(=O)[O-])cc1`?
C50 [1]: 1.5 µM; C50 [2]: 1.1 µM; log(ILSmax) [3]: 1.84; C50 [4]: 2.7 µM; LD10 [5]: 140 mg/kg; Rm [6]: 0.45; D40 [7]: 54.5 mg/kg

Which C50 [1] does the source give for `C[n+]1ccc(Nc2ccc(NC(=O)/C=C/c3ccc(C(=O)Nc4ccc(Nc5cc[n+](C)cc5)cc4)cc3)cc2)cc1.Cc1ccc(S(=O)(=O)[O-])cc1.Cc1ccc(S(=O)(=O)[O-])cc1` here?
The C50 was 0.43 µM.

What about the C50 [2] of the same molecule?
The C50 was 0.14 µM.

And the “log(ILSmax)” value [3]?
Its value is 2.28.

And the C50 [4]?
The C50 was 0.51 µM.

And the LD10 [5]?
The LD10 was 11 mg/kg.

And the Rm [6]?
The Rm was -0.34.

And the D40 [7]?
Its D40 is 4.2 mg/kg.

Which results are given for `C/C(=N\NC(=N)N)c1ccc(NC(=O)c2ccc(Nc3cc[n+](C)c4cc([N+](=O)[O-])ccc34)cc2)cc1.Cl.[Cl-]`?
C50 [1]: 0.2 µM; C50 [2]: 0.13 µM; log(ILSmax) [3]: 2.18; C50 [4]: 0.74 µM; LD10 [5]: 56 mg/kg; Rm [6]: -0.24; D40 [7]: 5.9 mg/kg

Which C50 [1] does the source give for `C[n+]1ccc(Nc2ccc(C(=O)Nc3ccc(Nc4cc[n+](C)c5ccc(N)cc45)c(N)c3)cc2)cc1.Cc1ccc(S(=O)(=O)[O-])cc1.Cc1ccc(S(=O)(=O)[O-])cc1` here?
The C50 was 1.58 µM.

And the C50 [2]?
The C50 was 0.25 µM.

What about the “log(ILSmax)” value [3] of the same molecule?
Its value is 2.03.

And the C50 [4]?
Its C50 is 2.68 µM.

And the LD10 [5]?
The LD10 was 9 mg/kg.

What about the Rm [6] of the same molecule?
The Rm was -0.15.

And the D40 [7]?
Its D40 is 1.1 mg/kg.

With `C[n+]1cccc(NC(=O)c2ccc(NC(=O)c3ccc(C(=O)Nc4ccc(N/N=N/c5ccc(C(=N)N)cc5)cc4)cc3)cc2)c1.Cc1ccc(S(=O)(=O)O)cc1.Cc1ccc(S(=O)(=O)[O-])cc1` as the molecule, how does the C50 [1] read?
The C50 was 0.48 µM.

And the C50 [2]?
The C50 was 0.22 µM.

What about the “log(ILSmax)” value [3] of the same molecule?
The value was 2.1.

And the C50 [4]?
The C50 was 0.64 µM.

What about the LD10 [5] of the same molecule?
Its LD10 is 35 mg/kg.

And the Rm [6]?
Its Rm is -0.77.

And the D40 [7]?
Its D40 is 6 mg/kg.

With `C[n+]1ccc(Nc2ccc(NC(=O)c3ccc(C(=O)Nc4ccc(Nc5cc[n+](C)c(N)n5)cc4)cc3)cc2)nc1N.Cc1ccc(S(=O)(=O)[O-])cc1.Cc1ccc(S(=O)(=O)[O-])cc1` as the molecule, how does the C50 [1] read?
The C50 was 0.45 µM.

What about the C50 [2] of the same molecule?
The C50 was 0.29 µM.

And the “log(ILSmax)” value [3]?
The value was 2.2.

And the C50 [4]?
The C50 was 0.64 µM.

What about the LD10 [5] of the same molecule?
Its LD10 is 75 mg/kg.

What about the Rm [6] of the same molecule?
Its Rm is -0.64.

And the D40 [7]?
The D40 was 8.6 mg/kg.

With `COc1cccc2c(Nc3ccc(C(=O)Nc4ccc(Nc5cc[n+](C)cc5)cc4)cc3)cc[n+](C)c12.[Br-].[Br-]` as the molecule, how does the C50 [1] read?
The C50 was 0.76 µM.

And the C50 [2]?
Its C50 is 0.16 µM.

What about the “log(ILSmax)” value [3] of the same molecule?
The value was 2.14.

And the C50 [4]?
Its C50 is 1.62 µM.

What about the LD10 [5] of the same molecule?
Its LD10 is 6 mg/kg.

And the Rm [6]?
The Rm was 0.3.

And the D40 [7]?
Its D40 is 0.3 mg/kg.

What does the source list for `Br.C/C(=N\NC(=N)N)c1ccc(C(=O)Nc2ccc(Nc3cc[n+](C)c4cc(N)ccc34)cc2)cc1.[Br-]`?
C50 [1]: 0.35 µM; C50 [2]: 0.17 µM; log(ILSmax) [3]: 2.28; C50 [4]: 0.6 µM; LD10 [5]: 165 mg/kg; Rm [6]: -0.35; D40 [7]: 30 mg/kg

For `C[n+]1ccc(Nc2ccc(NC(=O)c3ccc(/C=C/C4=NCCCN4)cc3)cc2)c2cc(N)ccc21.Cc1ccc(S(=O)(=O)O)cc1.Cc1ccc(S(=O)(=O)[O-])cc1`, which C50 [1] is on record?
Its C50 is 0.65 µM.

And the C50 [2]?
The C50 was 0.35 µM.

And the “log(ILSmax)” value [3]?
Its value is 1.9.

What about the C50 [4] of the same molecule?
Its C50 is 0.87 µM.

What about the LD10 [5] of the same molecule?
Its LD10 is 7 mg/kg.

And the Rm [6]?
The Rm was 0.17.

What about the D40 [7] of the same molecule?
The D40 was 2 mg/kg.

Which C50 [1] does the source give for `C[n+]1cccc(NC(=O)c2ccc(NC(=O)c3ccc(C(=O)Nc4ccc(C(=O)Nc5ccc[n+](C)c5)cc4Cl)cc3)c(Cl)c2)c1.Cc1ccc(S(=O)(=O)[O-])cc1.Cc1ccc(S(=O)(=O)[O-])cc1` here?
The C50 was 1.3 µM.

What about the C50 [2] of the same molecule?
Its C50 is 1.3 µM.

What about the “log(ILSmax)” value [3] of the same molecule?
The value was 1.6.

What about the C50 [4] of the same molecule?
Its C50 is 1.5 µM.

What about the LD10 [5] of the same molecule?
The LD10 was 50 mg/kg.

And the Rm [6]?
The Rm was 0.36.

What about the D40 [7] of the same molecule?
The D40 was 50 mg/kg.

Which C50 [1] does the source give for `Cc1c(C(=O)Nc2ccc(C(=O)Nc3ccc[n+](C)c3)cc2)ccc(C(=O)Nc2ccc(C(=O)Nc3ccc[n+](C)c3)cc2)c1C.Cc1ccc(S(=O)(=O)[O-])cc1.Cc1ccc(S(=O)(=O)[O-])cc1` here?
Its C50 is 6.9 µM.

What about the C50 [2] of the same molecule?
Its C50 is 5.4 µM.

And the “log(ILSmax)” value [3]?
The value was 1.65.

What about the C50 [4] of the same molecule?
Its C50 is 12 µM.

What about the LD10 [5] of the same molecule?
The LD10 was 19 mg/kg.

And the Rm [6]?
The Rm was 0.47.

What about the D40 [7] of the same molecule?
Its D40 is 14.7 mg/kg.

Which C50 [1] does the source give for `C[n+]1ccc(Nc2ccc(NC(=O)c3ccc(Nc4cc[n+](C)c5cc([N+](=O)[O-])ccc45)cc3)cc2)cc1.Cc1ccc(S(=O)(=O)[O-])cc1.Cc1ccc(S(=O)(=O)[O-])cc1` here?
Its C50 is 0.69 µM.

What about the C50 [2] of the same molecule?
Its C50 is 0.2 µM.

What about the “log(ILSmax)” value [3] of the same molecule?
Its value is 2.02.

What about the C50 [4] of the same molecule?
Its C50 is 1.3 µM.

And the LD10 [5]?
The LD10 was 27 mg/kg.

What about the Rm [6] of the same molecule?
The Rm was 0.15.

What about the D40 [7] of the same molecule?
Its D40 is 3 mg/kg.

For `CC[n+]1cccc2cc(NC(=O)c3ccc(-c4ccc(-c5ccc(-c6ccc(C(=O)Nc7ccc8c(ccc[n+]8CC)c7)cc6)cc5)cc4)cc3)ccc21.Cc1ccc(S(=O)(=O)[O-])cc1.Cc1ccc(S(=O)(=O)[O-])cc1`, which C50 [1] is on record?
Its C50 is 0.3 µM.

And the C50 [2]?
The C50 was 0.18 µM.

And the “log(ILSmax)” value [3]?
The value was 2.16.

And the C50 [4]?
Its C50 is 0.61 µM.

And the LD10 [5]?
The LD10 was 31 mg/kg.

What about the Rm [6] of the same molecule?
Its Rm is -0.1.

And the D40 [7]?
The D40 was 10.5 mg/kg.

Which C50 [1] does the source give for `C[n+]1cc(-c2ccc(NC(=O)/C=C/c3ccc(C(=O)Nc4ccc(-c5c[n+](C)c(N)nc5N)cc4)cc3)cc2)c(N)nc1N.Cc1ccc(S(=O)(=O)[O-])cc1.Cc1ccc(S(=O)(=O)[O-])cc1` here?
The C50 was 0.4 µM.

And the C50 [2]?
Its C50 is 0.11 µM.

And the “log(ILSmax)” value [3]?
The value was 2.2.

What about the C50 [4] of the same molecule?
The C50 was 0.57 µM.

What about the LD10 [5] of the same molecule?
Its LD10 is 50 mg/kg.

And the Rm [6]?
Its Rm is -0.62.

What about the D40 [7] of the same molecule?
The D40 was 10.7 mg/kg.

Which C50 [1] does the source give for `Cc1ccc(S(=O)(=O)[O-])cc1.Cc1ccc(S(=O)(=O)[O-])cc1.Cc1ccc2c(c1)c(Nc1ccc(C(=O)Nc3ccc(Nc4cc[n+](C)cc4)cc3)cc1)cc[n+]2C` here?
The C50 was 1.05 µM.

What about the C50 [2] of the same molecule?
The C50 was 0.17 µM.

And the “log(ILSmax)” value [3]?
Its value is 2.17.

What about the C50 [4] of the same molecule?
The C50 was 2.28 µM.

What about the LD10 [5] of the same molecule?
The LD10 was 15 mg/kg.

And the Rm [6]?
The Rm was 0.51.

And the D40 [7]?
Its D40 is 1 mg/kg.

Which C50 [1] does the source give for `C[n+]1ccc(Nc2ccc(C(=O)Nc3ccc(Nc4c5ccccc5[n+](C)c5cc(N)ccc45)cc3)cc2)cc1.[Cl-].[Cl-]` here?
The C50 was 0.11 µM.

And the C50 [2]?
The C50 was 0.06 µM.

And the “log(ILSmax)” value [3]?
Its value is 2.23.

What about the C50 [4] of the same molecule?
The C50 was 0.16 µM.

What about the LD10 [5] of the same molecule?
Its LD10 is 37 mg/kg.

What about the Rm [6] of the same molecule?
Its Rm is 0.47.

And the D40 [7]?
Its D40 is 2 mg/kg.

With `C[n+]1ccc(Nc2ccc(NC(=O)/C=C/c3ccc(Nc4cc[n+](C)c5ccccc45)cc3)cc2)cc1.[Br-].[Br-]` as the molecule, how does the C50 [1] read?
The C50 was 0.38 µM.

And the C50 [2]?
The C50 was 0.15 µM.

And the “log(ILSmax)” value [3]?
The value was 2.22.

And the C50 [4]?
The C50 was 0.71 µM.

And the LD10 [5]?
Its LD10 is 22 mg/kg.

What about the Rm [6] of the same molecule?
The Rm was 0.28.

What about the D40 [7] of the same molecule?
Its D40 is 1.3 mg/kg.

With `Cc1cc(C(=O)Nc2ccc(C(=O)Nc3ccc[n+](C)c3)cc2)ccc1C(=O)Nc1ccc(C(=O)Nc2ccc[n+](C)c2)cc1.Cc1ccc(S(=O)(=O)[O-])cc1.Cc1ccc(S(=O)(=O)[O-])cc1` as the molecule, how does the C50 [1] read?
Its C50 is 1.2 µM.

And the C50 [2]?
Its C50 is 1 µM.

What about the “log(ILSmax)” value [3] of the same molecule?
The value was 2.09.

What about the C50 [4] of the same molecule?
The C50 was 2.4 µM.

And the LD10 [5]?
The LD10 was 14 mg/kg.

And the Rm [6]?
The Rm was 0.06.

And the D40 [7]?
Its D40 is 5.7 mg/kg.
